From ChEMBL document CHEMBL1201862, “PubChem BioAssay data set” (2004) come the findings set out here.

Molecules are shown by their SMILES. Calls of active or inactive are those of the source.

Assay [1] can be described thus: A Cell Based Secondary Assay To Explore Cytotoxicity of Compounds that Sensitize Mycobacterium Tuberculosis to Beta-Lactam Antibiotics. The class given is functional.
Assay [2] in a line: cytotoxicity toward NIH3T3 fibroblasts, dose response, counter-screen, cell-based, ATP luminescence, mouse fibroblasts (AID 2010).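 Note: cells exposed to compound for about 90 hours before reading.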 Type of assay: functional. For orientation: A counterscreen serves to expose hits that act by an unwanted route or on another target.
Assay [3] is described as follows: inhibitors of intracellular T. cruzi replication, confirmation, NIH3T3 host cells, beta-gal luminescence (AID 2044).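 Note: intracellular parasites grown in NIH/3T3 mouse fibroblasts as host cells; luminescent beta-galactosidase reporter signal from transgenic T. cruzi replicating inside host cells; inhibitors lower the luminescence signal.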 The class given is functional, cell-based.
In the next assay the target is Cytochrome P450 2C9 (Homo sapiens, UniProt P11712). The note with it: Potency.
Chain of Cytochrome P450 2C9 (P11712 whole entry): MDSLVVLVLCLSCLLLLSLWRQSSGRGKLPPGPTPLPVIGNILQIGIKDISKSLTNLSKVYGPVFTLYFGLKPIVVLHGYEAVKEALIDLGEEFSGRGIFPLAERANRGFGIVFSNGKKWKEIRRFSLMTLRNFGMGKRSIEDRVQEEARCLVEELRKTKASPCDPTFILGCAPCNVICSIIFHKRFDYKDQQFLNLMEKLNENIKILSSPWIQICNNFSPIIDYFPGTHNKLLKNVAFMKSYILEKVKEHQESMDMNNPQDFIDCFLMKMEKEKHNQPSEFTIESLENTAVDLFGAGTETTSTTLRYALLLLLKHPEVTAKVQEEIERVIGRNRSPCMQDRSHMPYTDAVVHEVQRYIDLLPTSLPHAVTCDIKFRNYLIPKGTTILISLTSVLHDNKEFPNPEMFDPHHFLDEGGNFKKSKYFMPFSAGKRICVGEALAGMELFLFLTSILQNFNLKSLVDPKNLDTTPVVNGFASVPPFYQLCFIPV
The test system of assay [4] is Vero. Kind of assay: cells. Type of assay: functional. Particulars: Chlorocebus sabaeus.
A further assay deals with Streptococcus. Kind of assay: Group A Streptococcus viability loss, dose response, counter-screen for streptokinase expression inhibitor project, luminescence, BacTiterGlo (AID 1915).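 Note: potency for reduction of bacterial viability or growth.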 Type of assay: functional, organism-based.
The target in a further assay is Ion channel NompC (Danio rerio, UniProt Q7T1G6). Kind of assay: Fluorescence counterscreen assay for TRPML3 agonists: dose response cell-based high-throughput screening assay to identify agonists of the transient receptor potential channel N1 (TRPN1). [Related pubchem assays: 1526, 1424, 1448 ]. Type of assay: functional.
Chain of Ion channel NompC (Q7T1G6 whole entry): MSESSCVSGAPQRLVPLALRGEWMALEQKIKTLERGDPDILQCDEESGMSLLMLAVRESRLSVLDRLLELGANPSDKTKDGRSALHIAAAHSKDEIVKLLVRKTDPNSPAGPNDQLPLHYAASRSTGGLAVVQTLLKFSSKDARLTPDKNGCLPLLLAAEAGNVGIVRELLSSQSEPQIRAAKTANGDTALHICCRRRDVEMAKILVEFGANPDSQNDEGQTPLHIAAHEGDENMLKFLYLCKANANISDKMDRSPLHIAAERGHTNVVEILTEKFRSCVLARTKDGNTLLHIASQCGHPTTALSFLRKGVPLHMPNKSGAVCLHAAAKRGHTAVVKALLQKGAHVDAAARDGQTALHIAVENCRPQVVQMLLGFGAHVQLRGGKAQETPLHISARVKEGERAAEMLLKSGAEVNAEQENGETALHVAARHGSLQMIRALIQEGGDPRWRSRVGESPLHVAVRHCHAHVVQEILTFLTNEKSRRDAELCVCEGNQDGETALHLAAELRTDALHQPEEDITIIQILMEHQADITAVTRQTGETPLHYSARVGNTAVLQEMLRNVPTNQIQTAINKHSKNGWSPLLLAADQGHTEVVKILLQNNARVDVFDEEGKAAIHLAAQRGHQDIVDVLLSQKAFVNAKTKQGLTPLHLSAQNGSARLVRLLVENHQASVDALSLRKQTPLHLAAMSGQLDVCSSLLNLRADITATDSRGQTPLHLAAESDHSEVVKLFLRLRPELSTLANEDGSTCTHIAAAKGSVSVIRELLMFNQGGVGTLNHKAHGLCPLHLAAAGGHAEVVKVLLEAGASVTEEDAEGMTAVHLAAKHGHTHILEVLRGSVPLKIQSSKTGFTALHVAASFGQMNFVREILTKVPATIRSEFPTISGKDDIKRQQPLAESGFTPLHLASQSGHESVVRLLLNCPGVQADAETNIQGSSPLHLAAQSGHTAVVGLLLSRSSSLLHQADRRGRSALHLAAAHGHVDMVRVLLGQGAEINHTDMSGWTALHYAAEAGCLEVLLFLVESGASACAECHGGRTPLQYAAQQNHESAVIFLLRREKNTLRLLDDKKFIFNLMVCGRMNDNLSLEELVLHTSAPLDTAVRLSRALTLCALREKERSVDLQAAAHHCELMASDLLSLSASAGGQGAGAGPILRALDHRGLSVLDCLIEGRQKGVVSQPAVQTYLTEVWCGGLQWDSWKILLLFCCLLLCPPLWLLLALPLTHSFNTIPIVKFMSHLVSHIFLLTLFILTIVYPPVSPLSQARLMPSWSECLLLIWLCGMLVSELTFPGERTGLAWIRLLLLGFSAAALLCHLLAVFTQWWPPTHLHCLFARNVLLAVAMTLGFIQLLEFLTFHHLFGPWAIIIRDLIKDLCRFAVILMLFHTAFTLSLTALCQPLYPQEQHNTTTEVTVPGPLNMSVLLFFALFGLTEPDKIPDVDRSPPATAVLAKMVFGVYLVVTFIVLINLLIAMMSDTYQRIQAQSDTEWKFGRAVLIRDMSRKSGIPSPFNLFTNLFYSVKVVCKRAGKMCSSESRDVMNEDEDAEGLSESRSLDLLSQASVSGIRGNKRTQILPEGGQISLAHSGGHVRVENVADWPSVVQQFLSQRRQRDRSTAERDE
Assay [5] deals with Streptococcus sp. 'group A'. Kind of assay: growth inhibition of control SK(-) GAS strain, dose response, counter-screen for streptokinase expression inhibitor project, luminescence, kanamycin, BacTiterGlo, confirmation (AID 1900). Type of assay: functional, organism-based.
Assay [6] has as its target T1, Short transient receptor potential channel 4 (Mus musculus, UniProt Q9QUQ5).
T1 sequence (Q9QUQ5 whole entry): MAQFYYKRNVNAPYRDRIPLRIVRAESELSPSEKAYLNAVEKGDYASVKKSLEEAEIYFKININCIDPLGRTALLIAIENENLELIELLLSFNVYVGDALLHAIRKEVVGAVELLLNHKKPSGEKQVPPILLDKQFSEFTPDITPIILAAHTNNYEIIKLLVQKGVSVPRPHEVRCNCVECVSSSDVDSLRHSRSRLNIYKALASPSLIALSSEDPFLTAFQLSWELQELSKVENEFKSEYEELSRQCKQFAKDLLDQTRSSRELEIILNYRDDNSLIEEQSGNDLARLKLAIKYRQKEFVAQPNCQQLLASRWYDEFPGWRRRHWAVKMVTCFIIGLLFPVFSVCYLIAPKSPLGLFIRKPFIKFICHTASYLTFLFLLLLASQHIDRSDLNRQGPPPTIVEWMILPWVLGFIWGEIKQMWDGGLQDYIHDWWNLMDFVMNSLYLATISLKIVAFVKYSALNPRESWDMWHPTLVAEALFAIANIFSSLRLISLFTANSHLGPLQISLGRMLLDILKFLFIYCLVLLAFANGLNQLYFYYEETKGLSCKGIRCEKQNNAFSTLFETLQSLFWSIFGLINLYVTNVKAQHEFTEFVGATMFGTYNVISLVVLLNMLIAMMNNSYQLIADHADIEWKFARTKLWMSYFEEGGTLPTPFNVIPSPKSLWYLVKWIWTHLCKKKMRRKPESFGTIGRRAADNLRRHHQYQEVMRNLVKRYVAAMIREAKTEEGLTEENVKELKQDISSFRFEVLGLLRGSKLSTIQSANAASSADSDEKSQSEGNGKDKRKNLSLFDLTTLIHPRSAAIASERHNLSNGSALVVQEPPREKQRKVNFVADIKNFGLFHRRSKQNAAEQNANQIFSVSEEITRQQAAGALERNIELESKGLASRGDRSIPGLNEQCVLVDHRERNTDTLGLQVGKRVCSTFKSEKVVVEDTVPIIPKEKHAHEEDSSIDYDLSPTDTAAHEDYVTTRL
Put plainly: mouse TRPC4 channel activators, dose response, cell-based, HEK293 TRPC4/mu-opioid, Fluo-4 calcium (AID 434937). Type of assay: functional.

For a further assay, the target named is Mucolipin-3 (Homo sapiens, UniProt Q8TDD5). Put plainly: Dose response cell-based high-throughput screening assay for agonists of the transient receptor potential channel ML3 (TRPML3). [Related pubchem assays: 1526, 1424, 1448 ]. Type of assay: functional.
Chain of Mucolipin-3 (Q8TDD5 whole entry): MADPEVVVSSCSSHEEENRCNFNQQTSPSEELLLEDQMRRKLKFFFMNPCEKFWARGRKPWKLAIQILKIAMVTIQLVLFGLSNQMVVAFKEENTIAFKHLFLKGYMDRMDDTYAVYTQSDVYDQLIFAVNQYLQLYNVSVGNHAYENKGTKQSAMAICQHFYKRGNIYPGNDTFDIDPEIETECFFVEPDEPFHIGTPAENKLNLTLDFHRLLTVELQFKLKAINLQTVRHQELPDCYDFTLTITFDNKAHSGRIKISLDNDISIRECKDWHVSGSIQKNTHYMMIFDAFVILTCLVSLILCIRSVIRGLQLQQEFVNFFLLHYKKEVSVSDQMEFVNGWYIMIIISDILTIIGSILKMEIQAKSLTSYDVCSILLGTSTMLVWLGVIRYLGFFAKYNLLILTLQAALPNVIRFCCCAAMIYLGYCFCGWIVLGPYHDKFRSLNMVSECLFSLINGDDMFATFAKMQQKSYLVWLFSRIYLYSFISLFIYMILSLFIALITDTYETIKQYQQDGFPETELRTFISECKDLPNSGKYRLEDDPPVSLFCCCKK
Assay [7] deals with T2, Mannose-6-phosphate isomerase (Homo sapiens, UniProt P34949).
T2 sequence (P34949 whole entry): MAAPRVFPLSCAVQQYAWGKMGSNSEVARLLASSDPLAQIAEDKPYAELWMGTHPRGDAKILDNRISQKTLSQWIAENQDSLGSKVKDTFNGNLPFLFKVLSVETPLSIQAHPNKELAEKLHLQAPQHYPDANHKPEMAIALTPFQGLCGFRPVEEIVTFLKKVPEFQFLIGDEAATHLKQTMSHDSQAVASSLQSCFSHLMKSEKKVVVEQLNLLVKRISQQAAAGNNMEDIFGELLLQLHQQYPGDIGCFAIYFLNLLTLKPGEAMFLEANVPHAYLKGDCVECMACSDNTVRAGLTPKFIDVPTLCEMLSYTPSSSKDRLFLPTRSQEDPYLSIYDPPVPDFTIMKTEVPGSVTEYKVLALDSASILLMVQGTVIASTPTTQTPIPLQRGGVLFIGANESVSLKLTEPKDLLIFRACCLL
Put plainly: inhibitors of human PMI, primary screen, biochemical, fluorescence intensity, coupled assay (AID 1209).

Assay [8] has as its target T3, Rac GTPase-activating protein 1 (Homo sapiens, UniProt Q9H0H5).
T3 sequence (Q9H0H5 whole entry): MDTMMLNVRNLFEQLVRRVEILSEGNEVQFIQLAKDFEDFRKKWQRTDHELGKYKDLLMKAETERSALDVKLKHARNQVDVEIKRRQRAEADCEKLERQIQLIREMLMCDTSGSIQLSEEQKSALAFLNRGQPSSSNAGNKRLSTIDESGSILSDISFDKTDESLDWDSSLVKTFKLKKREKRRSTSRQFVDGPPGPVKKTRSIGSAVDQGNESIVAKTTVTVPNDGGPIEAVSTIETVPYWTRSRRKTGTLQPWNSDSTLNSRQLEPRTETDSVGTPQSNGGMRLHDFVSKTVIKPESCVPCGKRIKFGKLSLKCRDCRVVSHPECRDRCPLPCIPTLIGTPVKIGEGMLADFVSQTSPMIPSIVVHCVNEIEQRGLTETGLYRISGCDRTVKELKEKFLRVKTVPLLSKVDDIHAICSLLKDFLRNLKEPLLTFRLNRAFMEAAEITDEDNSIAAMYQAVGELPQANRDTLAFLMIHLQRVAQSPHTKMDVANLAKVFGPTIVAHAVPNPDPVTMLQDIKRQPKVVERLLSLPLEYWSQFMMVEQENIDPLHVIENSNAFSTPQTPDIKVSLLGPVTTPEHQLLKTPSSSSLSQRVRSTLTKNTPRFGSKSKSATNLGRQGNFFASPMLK
Kind of assay: MgcRacGAP GTPase-activating activity inhibitors, confirmation, biochemical, ADP Hunter fluorescence, primary and confirmatory (AID 624330). The class given is functional.

The next assay addresses Nonstructural protein 1 (Influenza A virus, UniProt Q194T2). The class given is functional, Influenza A virus (A/California/07/2009(H1N1)).
Assay [9] is described as follows: M. tuberculosis H37Rv growth inhibitors, H37Rv strain (AID 1626). Type of assay: functional.
In another assay the target is T4, Aminopeptidase N (Plasmodium falciparum FcB1/Columbia, UniProt O96935).
T4 sequence (O96935 whole entry): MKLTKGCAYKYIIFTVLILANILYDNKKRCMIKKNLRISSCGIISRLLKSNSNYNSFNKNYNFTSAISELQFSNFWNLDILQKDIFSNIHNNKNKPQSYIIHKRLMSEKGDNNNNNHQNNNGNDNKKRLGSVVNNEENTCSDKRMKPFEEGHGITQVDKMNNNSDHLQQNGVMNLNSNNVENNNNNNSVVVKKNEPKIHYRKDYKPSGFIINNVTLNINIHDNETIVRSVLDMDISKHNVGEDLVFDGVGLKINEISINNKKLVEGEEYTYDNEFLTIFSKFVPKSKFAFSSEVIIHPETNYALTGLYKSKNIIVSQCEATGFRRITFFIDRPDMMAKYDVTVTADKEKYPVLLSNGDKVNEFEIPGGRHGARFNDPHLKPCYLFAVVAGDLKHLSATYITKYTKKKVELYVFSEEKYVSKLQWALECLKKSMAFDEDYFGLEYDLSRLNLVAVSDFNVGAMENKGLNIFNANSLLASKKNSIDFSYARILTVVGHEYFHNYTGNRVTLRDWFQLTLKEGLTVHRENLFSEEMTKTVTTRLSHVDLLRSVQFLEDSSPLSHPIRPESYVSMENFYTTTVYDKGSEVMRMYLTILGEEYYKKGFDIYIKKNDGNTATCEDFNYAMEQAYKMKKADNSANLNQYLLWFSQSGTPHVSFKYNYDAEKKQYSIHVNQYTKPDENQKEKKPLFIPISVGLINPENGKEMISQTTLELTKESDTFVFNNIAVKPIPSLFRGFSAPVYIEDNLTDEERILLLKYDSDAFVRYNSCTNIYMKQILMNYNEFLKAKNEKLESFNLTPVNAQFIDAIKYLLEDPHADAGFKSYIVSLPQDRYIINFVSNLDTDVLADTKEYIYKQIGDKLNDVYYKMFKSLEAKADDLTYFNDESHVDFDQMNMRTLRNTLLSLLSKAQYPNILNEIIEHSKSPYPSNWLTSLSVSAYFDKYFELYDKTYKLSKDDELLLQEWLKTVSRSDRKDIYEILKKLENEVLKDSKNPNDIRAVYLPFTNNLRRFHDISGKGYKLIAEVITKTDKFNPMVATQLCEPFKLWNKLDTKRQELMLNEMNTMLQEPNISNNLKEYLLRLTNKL
Kind of assay: P. falciparum M1AAP inhibitors, biochemical, fluorogenic H-Leu-NHMec substrate, 1536-well (AID 1445). Set-up: species or system Plasmodium falciparum 3D7, 3D7.

The target in assay [10] is Lysosomal acid glucosylceramidase (Homo sapiens, UniProt P04062). Kind of assay: Dose response cell-based high throughput screening assay to identify enhancers of beta-glucosidase activity. [Related pubchem assays: 784 ]. The class given is functional.
Chain of Lysosomal acid glucosylceramidase (P04062 whole entry): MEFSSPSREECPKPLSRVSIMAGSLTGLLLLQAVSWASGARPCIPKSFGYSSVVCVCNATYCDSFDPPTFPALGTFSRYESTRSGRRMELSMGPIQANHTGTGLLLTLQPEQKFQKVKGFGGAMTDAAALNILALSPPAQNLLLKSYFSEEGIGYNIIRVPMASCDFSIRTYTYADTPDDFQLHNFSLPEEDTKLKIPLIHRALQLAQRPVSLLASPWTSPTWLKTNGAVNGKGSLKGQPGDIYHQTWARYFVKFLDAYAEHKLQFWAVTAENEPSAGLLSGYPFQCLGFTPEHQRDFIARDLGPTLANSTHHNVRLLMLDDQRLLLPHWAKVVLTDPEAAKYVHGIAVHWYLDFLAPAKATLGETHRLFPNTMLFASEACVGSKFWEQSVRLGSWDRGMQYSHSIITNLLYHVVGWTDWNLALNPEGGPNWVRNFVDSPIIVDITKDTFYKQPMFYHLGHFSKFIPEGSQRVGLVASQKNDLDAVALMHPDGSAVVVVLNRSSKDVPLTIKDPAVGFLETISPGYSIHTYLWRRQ
The next assay concerns the target T5, Streptokinase A (Streptococcus pyogenes serotype M1, UniProt P10520).
T5 sequence (P10520 whole entry): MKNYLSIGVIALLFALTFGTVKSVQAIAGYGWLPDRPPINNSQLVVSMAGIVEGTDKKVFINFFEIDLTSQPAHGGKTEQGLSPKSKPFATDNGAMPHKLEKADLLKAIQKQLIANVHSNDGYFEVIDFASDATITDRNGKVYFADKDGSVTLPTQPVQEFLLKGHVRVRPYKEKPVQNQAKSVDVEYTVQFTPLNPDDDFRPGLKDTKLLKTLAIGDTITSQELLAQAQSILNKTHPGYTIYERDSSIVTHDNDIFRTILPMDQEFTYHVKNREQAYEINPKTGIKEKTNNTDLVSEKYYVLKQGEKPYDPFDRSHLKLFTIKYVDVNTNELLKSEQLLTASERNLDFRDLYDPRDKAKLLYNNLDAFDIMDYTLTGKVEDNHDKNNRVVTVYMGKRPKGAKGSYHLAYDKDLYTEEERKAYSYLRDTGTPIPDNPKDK
Put plainly: S. pyogenes streptokinase expression inhibitors, potency, dose response, plasminogen activation absorbance, OD405 (AID 1914).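 Note: secreted streptokinase activity via plasminogen activation per viability signal from cell pellet.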 Type of assay: functional, Streptococcus pyogenes M1 GAS.

Assay [11] concerns Vero. Kind of assay: Vero cell cytotoxicity, cytotoxicity control for flavivirus capping enzyme inhibitors (AID 588742). Type of assay: functional. Particulars: Chlorocebus sabaeus.
Assay [12] has as its target T2, Mannose-6-phosphate isomerase. Put plainly: human PMI inhibitors, high substrate, primary screen, biochemical, fluorescence intensity, high mannose 6-phosphate (AID 1220).
The next assay concerns the target Cytochrome P450 3A4 (Homo sapiens, UniProt P08684). Particulars: Potency.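 Note: confirmatory qHTS run detecting inhibitors and substrates of CYP3A4.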

Chain of Cytochrome P450 3A4 (P08684 whole entry): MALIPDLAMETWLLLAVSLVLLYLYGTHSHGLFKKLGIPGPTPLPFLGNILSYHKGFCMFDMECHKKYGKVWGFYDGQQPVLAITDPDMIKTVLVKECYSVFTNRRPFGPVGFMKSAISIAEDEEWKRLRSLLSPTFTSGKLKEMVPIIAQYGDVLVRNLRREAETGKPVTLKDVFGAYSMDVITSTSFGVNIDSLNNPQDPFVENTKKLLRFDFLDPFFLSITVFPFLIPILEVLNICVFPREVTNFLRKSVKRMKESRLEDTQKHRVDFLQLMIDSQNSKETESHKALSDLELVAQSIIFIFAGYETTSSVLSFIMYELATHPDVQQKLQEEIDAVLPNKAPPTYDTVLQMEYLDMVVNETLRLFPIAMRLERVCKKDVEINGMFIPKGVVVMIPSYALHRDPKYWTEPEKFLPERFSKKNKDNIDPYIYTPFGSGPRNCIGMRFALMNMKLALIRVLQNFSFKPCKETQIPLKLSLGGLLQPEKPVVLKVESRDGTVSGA
Chain of Nonstructural protein 1 (Q194T2 whole entry): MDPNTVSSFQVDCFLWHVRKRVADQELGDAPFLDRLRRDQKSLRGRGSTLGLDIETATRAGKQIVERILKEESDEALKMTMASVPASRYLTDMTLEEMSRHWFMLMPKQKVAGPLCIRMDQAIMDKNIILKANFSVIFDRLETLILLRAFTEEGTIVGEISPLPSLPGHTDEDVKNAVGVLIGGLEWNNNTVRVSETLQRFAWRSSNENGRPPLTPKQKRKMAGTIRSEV

In the case of `COc1ccc2c(c1)c(CC(=O)Nc1ccc(C)cc1)c(C)n2C(=O)c1ccc(Cl)cc1`, in [1], the CC50 is > 40 µM (active). For the same molecule, the values for the EC50 in assay [2] and in [3] were > 60 µM (not active) and 1.04 µM (active), respectively.
`CC(C)[C@H]1C(=O)N2CCC[C@@H]2[C@]2(O)O[C@@](NC(=O)[C@H]3C=C4c5cccc6[nH]cc(c56)C[C@H]4N(C)C3)(C(C)C)C(=O)N12`: on Cytochrome P450 2C9, the AC50 is 25.1 µM (inconclusive).
For `COc1ccc(C(=O)NC(=S)NNC(=O)c2c(-c3ccccc3)noc2C)cc1OC`, the 50% cytotoxic concentration (CC50) in the assay with Vero [4] is 17.2 µM (active). Also, the EC50 in the assay on Streptococcus was 7.7 µM (active); on Ion channel NompC, 7.42 µM (active); in [5], 620 nM (active); in assay [6], 6.68 µM (active); on Mucolipin-3, 7.51 µM (active).
As for `NC(=S)N/N=C/c1cccc(O)c1O`, the figures for the IC50 (in [7]; in assay [8]; on Nonstructural protein 1) were 11 µM (active), 31.5 µM (active) and 4.5 µM (active), respectively.
Turning to `N#C/C(=C(/O)CSc1nnc(Cc2cccs2)n1C1CCCCC1)c1nc2ccccc2[nH]1`, the IC50 in assay [9] was > 100 µM (active); on Aminopeptidase N it was 78.9 µM (active).
Take `Cc1ccccc1NC(=O)Nc1cccs1`: the EC50 in [10] is reported as > 50 µM (not active).
`CCOC(=O)C1CCN(C(=O)c2ccc(NC(=O)C3CCCO3)cc2)CC1` (stereo not drawn): the EC50 in assay [10] is reported as > 50 µM (not active).
As to `Oc1c(Cl)cc(Cl)c2c1NCCC2`, the IC50 in [8] was 31.4 µM (active); in assay [12] it was 25.3 µM (active). For the same molecule, the EC50 is > 150 µM (not active) on Streptokinase A, 85.5 µM (active) in the assay with Streptococcus and 5360 nM (active) in [5]. Besides, the CC50 in the assay on Vero [11] was 34.5 µM (active).
For `C/C=C/OC(=O)NC(c1ccccc1)[C@]1(C(C)=O)CCCC1=O` (stereo partly drawn), the results for the AC50 on Cytochrome P450 3A4 and on Cytochrome P450 2C9 were 126 nM (inconclusive) and 3.98 µM (inconclusive), respectively.
As for `CCOc1ccc(NC(=O)CCN2CCN(c3ccccc3)CC2)cc1`, the half-inhibitory concentration (IC50) in assay [9] is > 100 µM (active).
With `CN(C)c1ncc(S(=O)(=O)c2ccccc2)c(-c2ccc(Cl)cc2Cl)n1`, the values for the EC50 on Ion channel NompC and on Mucolipin-3 were > 29.9 µM (not active) and 1.87 µM (active), respectively.

One may read the CC50 as the concentration that lowers cell viability or growth by half. A word on the EC50: it is the midpoint of the concentration-response curve. One may read the AC50 as the concentration giving half of the maximal activity seen. In general, IC50 refers to the concentration that gives 50% inhibition.
